Assay results taken from BindingDB's records for PubMed 34236862 (Lodz University of Technology, 2021).

Assay: Inhibition of Rac1 GTPase in human MDA-MB-231 cells assessed as inhibition of cell proliferation treated for 72 hrs by MTT assay

Cc1cc(C)cc(NC(=N)Nc2ccccc2C(F)(F)F)c1
IC50: 21 µM
